Active and inactive are the calls of the source.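 The calls were made as follows: active = mass spectrometry shows the compound covalently bound to the catalytic cysteine of glutathione transferase omega 1; inactive = no covalent bond to that cysteine seen.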
Target: Glutathione S-transferase omega-1 (Homo sapiens) (UniProt P78417)
Test: GSTO1 catalytic cysteine binding mode – biophysical, LC-MS/MS, mechanism study, late-stage follow-up (AID 449772)
Details: purified GSTO1, LC-MS/MS active-site cysteine labeling

Glutathione S-transferase omega-1 (Homo sapiens), sequence (P78417 whole entry, looked up): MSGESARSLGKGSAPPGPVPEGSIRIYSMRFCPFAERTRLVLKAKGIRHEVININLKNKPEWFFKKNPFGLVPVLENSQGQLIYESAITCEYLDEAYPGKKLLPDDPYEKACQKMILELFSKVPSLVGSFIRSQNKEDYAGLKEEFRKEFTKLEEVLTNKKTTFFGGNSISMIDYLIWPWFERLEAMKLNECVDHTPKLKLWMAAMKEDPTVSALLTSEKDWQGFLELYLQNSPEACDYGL

outcome | Compound
active | O=C(NC1CCCCC1)C(c1cccnc1)N(C(=O)CCl)c1ccc(F)cc1 (configuration not stated)
active | COc1ccc(C(C(=O)NC2CCCCC2)N(C(=O)CCl)c2cccc(Cl)c2)cc1 (configuration not stated)

Source: PubChem BioAssay AID449772 (The Scripps Research Institute Molecular Screening Center, 2010)
